From paper PMC8868518, “Exploring Titanium(IV) Complexes as Potential Antimicrobial Compounds” (Antibiotics, 2022)
Read-outs that look alike come from different tables or passages of the source.

What was measured:
[1] = system: C. neoformans (ATCC 208821); experiment: CO-ADD antifungal assay, growth inhibition (resazurin, OD600-570); assay type: cell-based, Cryptococcus neoformans; conditions: up to 32 μg/mL
Method: (§1) The compounds were used as received by the CO-ADD. For the screenings, most compounds were dissolved to a stock concentration of 10 mg/mL in DMSO. K2[Ti(Citrate)3], Na3Citrate, and K2[TiO(Oxalate)2] were dissolved in warm water. [Cu(Deferasirox)(H2O)]2 was dissolved in pyridine after its solubility was determined to be excellent in pyridine due to coordination of the solvent to the metal producing [Cu(Deferasirox)(pyridine)]2 in situ. […] Each sample concentration was prepared in 384-well plates, non-binding surface plate (NBS; Corning 3640) for each bacterial/fungal strain, tissue-culture treated (TC-treated; Corning 3712/3764), black for mammalian cell types and polypropylene 384-well (PP; […] All sample preparation was conducted using liquid handling robots. For the fungal assays, the fungi (C. albicans (ATCC 90028) and C. neoformans) (ATCC 208821) were used. Both fungi (yeast) strains were cultured for 3 days on Yeast Extract-Peptone Dextrose (YPD; Becton Dickinson 242720, Thermo Fisher Scientific, Waltham, MA, USA) agar at 30 °C. A yeast suspension of 1 × 10^6 to 5 × 10^6 CFU/mL (as determined by OD530) was prepared from five colonies from the agar plates, subsequently diluted with Yeast Nitrogen Base media (YNB; Becton Dickinson 233520, Thermo Fisher Scientific, Waltham, MA, USA), and added to each well of the compound-containing plates (384-well plates, NBS; Corning CLS3640) giving a final cell density of 2.5 × 10^3 CFU/mL and a total volume of 50 μL. Plates were covered and incubated at 35 °C for 36 h without shaking. […] Sigma R7017) and incubation at 35 °C for 2 h, using media-only as a negative control and fungi without inhibitors as a positive control. […] Fluconazole (Sigma F8929) was used as an internal control on each plate for both strains.

E. coli (ATCC 25922) = experiment: CO-ADD antibacterial assay, growth inhibition (OD600); assay type: cell-based, Escherichia coli; conditions: up to 32 μg/mL
Method: (§2) Dry compounds ranging from 1–2 mg were weighed into properly labeled Eppendorf tubes and sealed with parafilm. The compounds were used as received by the CO-ADD. For the screenings, most compounds were dissolved to a stock concentration of 10 mg/mL in DMSO. K2[Ti(Citrate)3], Na3Citrate, and K2[TiO(Oxalate)2] were dissolved in warm water. […] Samples were diluted in water to a final testing concentration of 32 µg/mL while keeping the final co-solvent concentration to a maximum of 0.5%. Where applicable, compounds were serially diluted 1:2 fold eight times. Each sample concentration was prepared in 384-well plates, non-binding surface plate (NBS; Corning 3640) for each bacterial/fungal strain, tissue-culture treated (TC-treated; Corning 3712/3764), black for mammalian cell types and polypropylene 384-well (PP; Corning 3657) for hemolysis assays, all in duplicate (n = 2), and keeping the final DMSO concentration to a maximum of 0.5%. All sample preparation was conducted using liquid handling robots.
(§3) For the bacterial assays, four Gram-negative bacteria (E. coli (ATCC 25922, Manassas, VA, USA); K. pneumoniae (ATCC 700603), A. baumannii; (ATCC 19606), and P. aeruginosa (ATCC 27853) and the Gram-positive bacteria (S. aureus MRSA (ATCC 43300) were used. Each strain was cultured in cation-adjusted Mueller Hinton broth (CAMHB; Bacto Laboratories 212322, Mount Pritchard, Australia) at 37 °C overnight. A sample of each culture was then diluted 40-fold in fresh CAMHB and incubated at 37 °C for 1.5–3 h. The resultant mid-log phase cultures were diluted with CAMHB (CFU/mL measured by OD600), then added to each well of the compound-containing plates (384-well non-binding surface (NBS) plates; Corning CLS3640, Millipore Sigma, Burlington, MA, USA), giving a cell density of 5 × 10^5 CFU/mL and a total volume of 50 µL. Plates were covered and incubated at 37 °C for 18 h without shaking. Inhibition of bacterial growth was determined by measuring absorbance at 600 nm (OD600) with a Tecan M1000 Pro monochromator plate reader, using media-only as negative control and bacteria without inhibitors as a positive control. […] Colistin sulfate (Sigma C4461) and vancomycin HCl (Sigma 861987) were used as internal controls on each plate for Gram-negative and Gram-positive bacteria, respectively.

MRC-5 cells [2] = conditions: cited from earlier work
[3] = system: P. aeruginosa (ATCC 27853); experiment: CO-ADD antibacterial assay, growth inhibition (OD600); assay type: cell-based, Pseudomonas aeruginosa; conditions: up to 32 μg/mL
Method: as §2, §3

[4] = system: A. baumannii (ATCC 19606); experiment: as above; assay type: cell-based, Acinetobacter baumannii; conditions: up to 32 μg/mL
Method: as §2, §3

[5] = system: HEK293 ATCC CRL-1573 human embryonic kidney cells; experiment: CO-ADD cytotoxicity assay (resazurin); assay type: cell-based; conditions: all concentrations examined (0.25-32 μg/mL), 20 h; CC50 could not be measured
Method: The compounds were used as received by the CO-ADD. For the screenings, most compounds were dissolved to a stock concentration of 10 mg/mL in DMSO. K2[Ti(Citrate)3], Na3Citrate, and K2[TiO(Oxalate)2] were dissolved in warm water. [Cu(Deferasirox)(H2O)]2 was dissolved in pyridine after its solubility was determined to be excellent in pyridine due to coordination of the solvent to the metal producing [Cu(Deferasirox)(pyridine)]2 in situ. […] Each sample concentration was prepared in 384-well plates, non-binding surface plate (NBS; Corning 3640) for each bacterial/fungal strain, tissue-culture treated (TC-treated; Corning 3712/3764), black for mammalian cell types and polypropylene 384-well (PP; […] All sample preparation was conducted using liquid handling robots. HEK293 ATCC CRL-1573 human embryonic kidney cells were counted manually in a Neubauer hemocytometer and added to compound-containing plates (384-well plates, tissue culture-treated (TC); […] Life Technologies 11995-073) with 10% FBS (GE SH30084.03).

[6] = system: S. aureus MRSA (ATCC 43300); experiment: CO-ADD antibacterial assay, growth inhibition (OD600); assay type: cell-based, Staphylococcus aureus
Method: as §2, §3

C. albicans (ATCC 90028) = experiment: CO-ADD antifungal assay, growth inhibition (OD630); assay type: cell-based, Candida albicans; conditions: up to 32 μg/mL
Method: as §1

[7] = system: K. pneumoniae (ATCC 700603); experiment: CO-ADD antibacterial assay, growth inhibition (OD600); assay type: cell-based, Klebsiella pneumoniae; conditions: up to 32 μg/mL
Method: as §2, §3

MRC-5 cells [8] = experiment: MRC-5 cell viability, dose-response treatment, MTT assay; assay type: cell-based, human; conditions: MRC-5 cells, MTT, 72 h, pH 7.4, n = 6, this work
Method: A thawed stock of MRC-5 cells was washed with 1X PBS and resuspended in phenol red DMEM media (supplemented with 10% FBS and 1% of penicillin-streptomycin) and then seeded in a 100 mm × 20 mm (complete, O.D. x H) petri dish and grown in a 5% (v/v) CO2 humidified atmosphere at 37 °C. At least three passages were performed to ensure the integrity of the cells. After this point, cells were collected, thoroughly washed with 1X PBS, and then resuspended in phenol red-free DMEM (supplemented with 10% FBS, 1% Streptomycin/Penicillin, and 2.4 mM L-glutamine) at a 2.0 × 10^5 cells/mL concentration. Approximately 100 µL of the cell solution was seeded into wells of several 96-well plates to begin the MTT assay, which was performed in the 5% (v/v) CO2 humidified atmosphere at 37 °C. At least one lane of wells in each plate was supplied media without cells as a control. […] Most of the compounds were dissolved in 1X PBS buffer at pH 7.4. […] Titanocene dichloride was prepared as a fresh stock solution in DMSO and then diluted in 0.1 M NaCl (aq) instead of 1X PBS (to minimize hydrolysis induced precipitation) to the desired concentration while maintaining a constant 1% (v/v) DMSO background (0.5% DMSO after mixing with the well media). A control of cells treated with media containing 1% (v/v) DMSO was included in the study. The titanocene solutions were used within an hour of preparation in the final cell solution. […] At 3 h before a total of 72 h of incubation with the compounds, the cells were treated with 25 µL of 9 mg/mL MTT prepared in 1X PBS and sterile-filtered. Upon completion of the three hours, 50 µL of 10% (w/v) SDS (prepared in 0.1 M Tris buffer at pH 11) was added to solubilize the purple formazan product crystals and left overnight in the incubator. Control wells in the plates consisted of: (1) Untreated cells + MTT as the measure of 100% viable cell growth in the media and (2) Media with no cells + MTT as the measure of zero cells in the media. Two sets of compounds could be tested per plate. The plates were read at the wavelength of 570 nm (absorbance of the formazan product at pH 10.0) and 800 nm (background control) using a Tecan plate reader. The absorbance of all wells was compared to the absorbance of the untreated cells with the MTT set as the 100% viable cell standard and the absorbance of the zero cell control set as the 0% viable cell standard. […] Nonlinear regression in Origin 8.5 was utilized to fit the growth curves using the pharmacology dose–response equation to determine the half-maximal inhibitory concentration (IC50) and the corresponding standard deviation. All samples were tested six times.

[9] = predicted or measured MIC, ≥75% growth inhibition, 36 h
[10] = predicted or measured MIC, ≥75% growth inhibition
[11] = predicted or measured MIC, lowest concentration with ≥75% growth inhibition, 0.25-32 μg/mL, 18 h

| Compound | MIC C. neoformans [1, 9] [µg/mL] | Dmax C. neoformans, maximum % inhibition [1] [%] | MIC E. coli (E. coli (ATCC 25922); [10]) [µg/mL] | Dmax E. coli, maximum % inhibition (E. coli (ATCC 25922)) [%] | MIC P. aeruginosa [3, 10] [µg/mL] | Dmax P. aeruginosa, maximum % inhibition [3] [%] | MIC A. baumannii [4, 10] [µg/mL] | Dmax A. baumannii, maximum % inhibition [4] [%] | MIC S. aureus (MRSA) [6, 11] [µg/mL] | Dmax S. aureus (MRSA), maximum % inhibition ([6]; up to 32 μg/mL) [%] | MIC C. albicans (C. albicans (ATCC 90028); [9]) [µg/mL] | Dmax C. albicans, maximum % inhibition (C. albicans (ATCC 90028)) [%] | MIC K. pneumoniae [7, 10] [µg/mL] | Dmax K. pneumoniae, maximum % inhibition [7] [%] | also measured |
| --- | --- | --- | --- | --- | --- | --- | --- | --- | --- | --- | --- | --- | --- | --- | --- |
| 4-[(3Z,5E)-3,5-Bis(6-oxocyclohexa-2,4-dien-1-ylidene)-1,2,4-triazolidin-1-yl] benzoic acid [Compound 4, reference compound] | >32 | −25.58 | >32 | 7.72 | >32 | 5.82 | >32 | 18.95 | >32 | 44.31 | >32 | 4.31 | >32 | 20.2 | IC50 ± SD (µM) (MRC-5 cells [2]): Proliferative Behavior; increase in the proliferation of MRC-5 cells (MRC-5 cells [2]): nearly three-fold increase; antiproliferative effect against HEK293 (in words) [5]: inactive |
| K2[Ti(Citrate)3] [Compound 7] | >32 | −7.88 | >32 | 10.41 | >32 | 7.99 | >32 | 17.94 | >32 | 38.01 | >32 | 44.53 | >32 | 15.43 | IC50 ± SD (µg/mL) (MRC-5 cells [8]): >>73.2 µg/mL; IC50 (MRC-5 cells [8]; read-out: IC50 ± SD): > 100 µM |
| Oc1ccccc1-c1n[nH]c(-c2ccccc2O)n1 [Compound 3, 2-[3-(2-Hydroxyphenyl)-1H-1,2,4-triazol-5-yl]phenol, reference compound] | – | – | – | – | – | – | – | – | – | – | – | – | – | – | MIC ([1]; Cryptococcus neoformans, ATCC208821, predicted or measured MIC, ≥75% growth inhibition, 36 h): > 32 µg/mL; Dmax ([1]; Cryptococcus neoformans, ATCC208821, read-out: Dmax C. neoformans, maximum % inhibition): -7.23%; MIC (E. coli (ATCC 25922); Escherichia coli, ATCC25922, predicted or measured MIC, ≥75% growth inhibition): > 32 µg/mL; Dmax (E. coli (ATCC 25922); Escherichia coli, ATCC25922, read-out: Dmax E. coli, maximum % inhibition): -9.07%; IC50 ± SD (µg/mL) (MRC-5 cells [2]): >>25.3 µg/mL; IC50 (MRC-5 cells [2]; read-out: IC50 ± SD): > 100 µM; MIC ([3]; Pseudomonas aeruginosa, ATCC27853, predicted or measured MIC, ≥75% growth inhibition): > 32 µg/mL; Dmax ([3]; Pseudomonas aeruginosa, ATCC27853, read-out: Dmax P. aeruginosa, maximum % inhibition): 10%; MIC ([4]; Acinetobacter baumannii, ATCC19606, predicted or measured MIC, ≥75% growth inhibition): > 32 µg/mL; Dmax ([4]; Acinetobacter baumannii, ATCC19606, read-out: Dmax A. baumannii, maximum % inhibition): -1.93%; activity against MRSA (in words) ([6]; CO-ADD screen, 32 μg/mL): inactive; MIC ([6]; Staphylococcus aureus, predicted or measured MIC, lowest concentration with ≥75% growth inhibition, 0.25-32 μg/mL, 18 h): > 32 µg/mL; Dmax ([6]; Staphylococcus aureus, up to 32 μg/mL, read-out: Dmax S. aureus (MRSA), maximum % inhibition): -2.34%; MIC (C. albicans (ATCC 90028); Candida albicans, ATCC90028, predicted or measured MIC, ≥75% growth inhibition, 36 h): > 32 µg/mL; Dmax (C. albicans (ATCC 90028); Candida albicans, ATCC90028, read-out: Dmax C. albicans, maximum % inhibition): 6.23%; MIC ([7]; Klebsiella pneumoniae, ATCC700603, predicted or measured MIC, ≥75% growth inhibition): > 32 µg/mL; Dmax ([7]; Klebsiella pneumoniae, ATCC700603, read-out: Dmax K. pneumoniae, maximum % inhibition): 4.11% |
